Reference: US8071763B2, “Methods for treatment of nocturia” (Daiichi Sankyo Company, Limited, priority 2002, dated 2011)

Columns and labels:
patients with nocturia = assay: Continuation and termination of loxoprofen administration after the trial treatment; assay type: in vivo, human
Experimental: After the initial study, loxoprofen was administered at the patients' discretion; 101 continued loxoprofen therapy for =320 (mean 61) days. After the evaluation, loxoprofen therapy was continued or not according to the patients' wishes (Table 5). Of 101 excellent and improved patients, 11 continued to take loxoprofen every night and 43 when necessary. The improvement of nocturia lasted for several months even after discontinuation of therapy in 11 (10%) who discontinued loxoprofen after 5 to 310 days' administration. In addition, in five patients in whom loxoprofen's effectiveness reduced after continuous administration, the effectiveness recovered with occasional administration following withdrawal for several weeks.

nocturia = assay: Single BPH patient taking a loxoprofen sodium tablet before sleeping; assay type: in vivo, human; details: one patient treated for BPH; 60-mg tablet before sleeping
Experimental: Based on the experience, the inventor conducted a non-randomized trial treatment with loxoprofen, a short-acting nonsteroidal anti-inflammatory drug (NSAID) prodrug usually prescribed at a dosage of 60 mg t.i.d. for the management of pain, in patients bothered by nocturia. […] The invention was achieved on the basis of these findings.

[1] = discontinued after 5 to 310 days' administration
[2] = patients with Excellent Response
[3] = patients with Improved Response

For `CC(C(=O)O)c1ccc(CC2CCCC2=O)cc1` (stereo not drawn) [loxoprofen, loxoprofen sodium], the “Improvement of nocturia lasted for several months after discontinuation of therapy, % of patients” value (patients with nocturia; [1]) was 10%, the “Improvement of nocturia lasted for several months after discontinuation of therapy, no. of patients” value (patients with nocturia; [1]) was 11 and the “Effectiveness reduced after continuous administration and recovered with occasional administration, no. of patients” value (patients with nocturia; following withdrawal for several weeks) was “five”. The “Discontinued therapy due to adverse events, no. of patients” value (patients with nocturia; [2]) was 1, the “Discontinued therapy: cured or stable improvement, no. of patients” value (patients with nocturia; [2]) was 7 and the “Discontinued therapy due to adverse events, no. of patients” value (patients with nocturia; [3]) was 9. The “Discontinued therapy: cured or stable improvement, no. of patients” value (patients with nocturia; [3]) was 4, the “Discontinued therapy: reduced efficacy, no. of patients” value (patients with nocturia; [3]) was 2 and the “Nocturia, voids/night” value (nocturia) was “decreased from a usual of four voids to one void/night”.
